Reference: patent publication US10744136B2, “Sulfonamide derivatives as JAK inhibitors” (Avista Pharma Solutions, Inc., priority 2018, dated 2020)

Target: T1, JAK1 (Homo sapiens, UniProt P23458)
T1 construct: purchased Thermo Fisher Scientific
Assay: Z'-LYTE JAK1 kinase screen (Thermo Fisher Scientific)
Format: biochemical
Conditions: 1% DMSO, ATP at Km apparent; for % Inhibition 10 nM / inhibition at 0.01 µM: test compound 10 nM; for % Inhibition 10 nM: 0.01 µM; for % Inhibition 100 nM / inhibition at 0.1 µM: test compound 100 nM; for % Inhibition 100 nM: 0.1 µM; for % Inhibition 1000 nm: test compound 1000 nm (so in the source)
Procedure: The example compounds were screened for Jak1 activity at Thermo Fisher Scientific, using their Z′-Lyte™ protocol, as described below. Selectivity screening against other kinases can be performed following similar procedures. Z′-LYTE Assay Conditions: The Test Compounds are screened in 1% DMSO (final) in the well. Three screening concentrations (10, 100, and 1000 nM) of test compounds were used. Peptide/Kinase Mixtures: All Peptide/Kinase Mixtures are diluted to a 2× working concentration in the appropriate Kinase Buffer (For JAK1, the 2×JAK1/Tyr 06 mixture is prepared in 50 mM HEPES pH 6.5, 0.01% BRIJ-35, 10 mM MgCl2, 1 mM EGTA, 0.02% NaN3. The final 10 μL Kinase Reaction consists of 21.2-91.5 ng JAK1 and 2 μM Tyr 06 in 50 mM HEPES pH 7.0, 0.01% BRIJ-35, 10 mM MgCl2, 1 mM EGTA, 0.01% NaN3. After the 1 hour Kinase Reaction incubation, 5 μL of a 1:128 dilution of Development Reagent A is added). ATP Solution: All ATP Solutions are diluted to a 4× working concentration in Kinase Buffer (50 mM HEPES pH 7.5, 0.01% BRIJ-35, 10 mM MgCl2, 1 mM EGTA). ATP: Km apparent is previously determined using a Z′-LYTE assay. 10× Novel PKC Lipid Mix: 2 mg/ml Phosphatidyl Serine, 0.2 mg/ml DAG in 20 mM HEPES, pH 7.4, 0.3% CHAPS. For 5 mL 10× Novel PKC Lipid Mix: • 1. Add 10 mgs Phosphatidyl Serine (Avanti Polar Lipids Part #8400032C or 840039C) and 1 mg DAG (Avanti Polar Lipids Part #800811C) to a glass tube. • 2. Remove the chloroform from lipid mixture by evaporating to a clear, thin film under a stream of nitrogen. Continuous rotation of the tube, at an angle to ensure maximum surface area of the lipid solution, will promote the thinnest film. • 3. Add 5 mLs resuspension buffer, 20 mM HEPES, 0.3% CHAPS, pH 7.4, to the dried lipid mix • 4. Heat gently to 50-60° C. for 1-2 minutes and vortex in short intervals until the lipids are dissolved to a clear or slightly hazy solution. The lipids are typically in solution after 2-3 heat/vortex cycles. • 5. Cool to room temperature, aliquot into single use volumes and store at −20° C. Assay Protocol Bar-coded Corning, low volume NBS, black 384-well plate (Corning Cat. #4514) • 1. 100 nL—100× Test Compound in 100% DMSO • 2. 2.4 μL—Kinase buffer • 3. 5 μL—2× Peptide/Kinase Mixture • 4. 2.5 μL—4×ATP Solution • 5. 30-second plate shake • 6. 60-minute Kinase Reaction incubation at room temperature • 7. 5 μL—Development Reagent Solution • 8. 30-second plate shake • 9. 60-minute Development Reaction incubation at room temperature • 10. Read on fluorescence plate reader and analyze the data.

T1 sequence (P23458 whole entry): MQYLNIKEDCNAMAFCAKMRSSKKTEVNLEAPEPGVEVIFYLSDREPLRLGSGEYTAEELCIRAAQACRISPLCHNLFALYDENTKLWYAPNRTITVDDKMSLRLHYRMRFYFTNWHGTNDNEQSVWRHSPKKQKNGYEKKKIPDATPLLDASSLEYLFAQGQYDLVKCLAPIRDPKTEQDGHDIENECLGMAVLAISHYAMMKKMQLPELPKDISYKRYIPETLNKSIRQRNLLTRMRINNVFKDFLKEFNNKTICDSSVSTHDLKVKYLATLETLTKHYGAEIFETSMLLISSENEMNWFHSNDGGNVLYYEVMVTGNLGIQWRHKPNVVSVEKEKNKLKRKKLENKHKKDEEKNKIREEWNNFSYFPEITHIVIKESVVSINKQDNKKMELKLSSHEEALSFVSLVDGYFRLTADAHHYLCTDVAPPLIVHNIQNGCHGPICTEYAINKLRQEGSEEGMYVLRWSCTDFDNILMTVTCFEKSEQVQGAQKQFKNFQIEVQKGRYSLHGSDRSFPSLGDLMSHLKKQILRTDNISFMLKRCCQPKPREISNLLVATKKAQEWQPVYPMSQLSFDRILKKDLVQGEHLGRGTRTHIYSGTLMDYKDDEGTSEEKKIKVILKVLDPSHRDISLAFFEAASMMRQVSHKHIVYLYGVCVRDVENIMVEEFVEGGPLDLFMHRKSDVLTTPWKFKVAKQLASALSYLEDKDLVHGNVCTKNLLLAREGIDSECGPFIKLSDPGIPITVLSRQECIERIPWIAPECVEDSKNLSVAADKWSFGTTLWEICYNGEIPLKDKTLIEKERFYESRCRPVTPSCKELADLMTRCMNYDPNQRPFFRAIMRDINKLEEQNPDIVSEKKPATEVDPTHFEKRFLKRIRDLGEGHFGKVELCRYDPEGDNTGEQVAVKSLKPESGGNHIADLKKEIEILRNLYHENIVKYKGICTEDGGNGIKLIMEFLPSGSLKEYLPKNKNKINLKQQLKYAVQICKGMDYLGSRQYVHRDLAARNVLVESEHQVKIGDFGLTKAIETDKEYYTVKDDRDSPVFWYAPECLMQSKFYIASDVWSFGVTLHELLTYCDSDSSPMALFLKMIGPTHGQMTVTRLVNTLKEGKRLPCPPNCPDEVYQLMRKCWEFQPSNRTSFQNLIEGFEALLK

% Inhibition 10 nM [%]	% Inhibition 100 nM [%]	% Inhibition 1000 nm [%]	inhibition at 0.01 µM [%]	inhibition at 0.1 µM [%]	Compound
12	52	89			CNS(=O)(=O)C1CC2(CC(N(C)c3ncnc4[nH]ccc34)C2)C1 (single isomer, unassigned; enantiomer b) [Compound 27, (Enantiomer B)-N-methyl-6-[methyl(7H-pyrrolo[2,3-d]pyrimidin-4-yl)amino]spiro[3.3]heptane-2-sulfonamide]
		96	71	92	CNS(=O)(=O)C1CC2(CC(N(C)c3ncnc4[nH]ccc34)C2)C1 (stereo not drawn) [Compound 1, N-methyl-6-[methyl(7H-pyrrolo[2,3-d]pyrimidin-4-yl)amino]spiro[3.3]heptane-2-sulfonamide]
		95	31	78	CN(c1ncnc2[nH]ccc12)C1CC2(CC(NS(C)(=O)=O)C2)C1 (stereo not drawn) [Compound 15, N-[2-[methyl(7H-pyrrolo[2,3-d]pyrimidin-4-yl)amino]spiro[3.3]heptan-6-yl]methanesulfonamide]
		96	28	76	CCS(=O)(=O)NC1CC2(C1)CC(N(C)c1ncnc3[nH]ccc13)C2 (stereo not drawn) [Compound 16, N-[2-[methyl(7H-pyrrolo[2,3-d]pyrimidin-4-yl)amino]spiro[3.3]heptan-6-yl]ethanesulfonamide]
		95	38	83	CCCS(=O)(=O)NC1CC2(C1)CC(N(C)c1ncnc3[nH]ccc13)C2 (stereo not drawn) [Compound 17, N-[2-[methyl(7H-pyrrolo[2,3-d]pyrimidin-4-yl)amino]spiro[3.3]heptan-6-yl]propane-1-sulfonamide]
		94	23	71	CC(C)S(=O)(=O)NC1CC2(C1)CC(N(C)c1ncnc3[nH]ccc13)C2 (stereo not drawn) [Compound 18, N-[2-[methyl(7H-pyrrolo[2,3-d]pyrimidin-4-yl)amino]spiro[3.3]heptan-6-yl]propane-2-sulfonamide]
		94	27	73	CC(C)CS(=O)(=O)NC1CC2(C1)CC(N(C)c1ncnc3[nH]ccc13)C2 (stereo not drawn) [Compound 19, 2-methyl-N-[2-[methyl(7H-pyrrolo[2,3-d]pyrimidin-4-yl)amino]spiro[3.3]heptan-6-yl]propane-1-sulfonamide]

More lines, now with the values behind:

Compound	% Inhibition 10 nM [%]	% Inhibition 100 nM [%]	% Inhibition 1000 nm [%]	inhibition at 0.01 µM [%]	inhibition at 0.1 µM [%]
CNS(=O)(=O)C1CC2(CC(N(C)c3ncnc4[nH]ccc34)C2)C1 (single isomer, unassigned; enantiomer a) [Compound 26, (Enantiomer A)-N-methyl-6-[methyl(7H-pyrrolo[2,3-d]pyrimidin-4-yl)amino]spiro[3.3]heptane-2-sulfonamide]	77	96	98		
CCNS(=O)(=O)C1CC2(CC(N(C)c3ncnc4[nH]ccc34)C2)C1 (stereo not drawn) [Compound 2, N-ethyl-6-[methyl(7H-pyrrolo[2,3-d]pyrimidin-4-yl)amino]spiro[3.3]heptane-2-sulfonamide]			98	52	90
CCCNS(=O)(=O)C1CC2(CC(N(C)c3ncnc4[nH]ccc34)C2)C1 (stereo not drawn) [Compound 3, 6-[methyl(7H-pyrrolo[2,3-d]pyrimidin-4-yl)amino]-N-propyl-spiro[3.3]heptane-2-sulfonamide]			98	57	92
CC(C)NS(=O)(=O)C1CC2(CC(N(C)c3ncnc4[nH]ccc34)C2)C1 (stereo not drawn) [Compound 4, N-isopropyl-6-[methyl(7H-pyrrolo[2,3-d]pyrimidin-4-yl)amino]spiro[3.3]heptane-2-sulfonamide]			95	23	75
CN(c1ncnc2[nH]ccc12)C1CC2(C1)CC(S(=O)(=O)NC1CC1)C2 (stereo not drawn) [Compound 5, N-cyclopropyl-6-[methyl(7H-pyrrolo[2,3-d]pyrimidin-4-yl)amino]spiro[3.3]heptane-2-sulfonamide]			99	61	94
CN(c1ncnc2[nH]ccc12)C1CC2(C1)CC(S(=O)(=O)NCC(F)(F)F)C2 (stereo not drawn) [Compound 6, 6-[methyl(7H-pyrrolo[2,3-d]pyrimidin-4-yl)amino]-N-(2,2,2-trifluoroethyl)spiro[3.3]heptane-2-sulfonamide]			96	63	93
CC(C)CNS(=O)(=O)C1CC2(CC(N(C)c3ncnc4[nH]ccc34)C2)C1 (stereo not drawn) [Compound 7, N-isobutyl-6-[methyl(7H-pyrrolo[2,3-d]pyrimidin-4-yl)amino]spiro[3.3]heptane-2-sulfonamide]			97	42	88
CN(c1ncnc2[nH]ccc12)C1CC2(C1)CC(S(=O)(=O)NC(C)(C)C)C2 (stereo not drawn) [Compound 8, N-tert-butyl-6-[methyl(7H-pyrrolo[2,3-d]pyrimidin-4-yl)amino]spiro[3.3]heptane-2-sulfonamide]			94	37	82
CN(c1ncnc2[nH]ccc12)C1CC2(C1)CC(S(=O)(=O)NC1CCC1)C2 (stereo not drawn) [Compound 9, N-cyclobutyl-6-[methyl(7H-pyrrolo[2,3-d]pyrimidin-4-yl)amino]spiro[3.3]heptane-2-sulfonamide]			99	64	93
CN(c1ncnc2[nH]ccc12)C1CC2(C1)CC(S(=O)(=O)NC1CCCC1)C2 (stereo not drawn) [Compound 10, N-cyclopentyl-6-[methyl(7H-pyrrolo[2,3-d]pyrimidin-4-yl)amino]spiro[3.3]heptane-2-sulfonamide]			97	52	84
CN(c1ncnc2[nH]ccc12)C1CC2(CC(NS(=O)(=O)c3ccccc3)C2)C1 (stereo not drawn) [Compound 11, N-[2-[methyl(7H-pyrrolo[2,3-d]pyrimidin-4-yl)amino]spiro[3.3]heptan-6-yl]benzenesulfonamide]			95	11	81
CN(c1ncnc2[nH]ccc12)C1CC2(CC(NS(=O)(=O)c3ccccc3Cl)C2)C1 (stereo not drawn) [Compound 12, 2-chloro-N-[2-[methyl(7H-pyrrolo[2,3-d]pyrimidin-4-yl)amino]spiro[3.3]heptan-6-yl]benzenesulfonamide]			90	15	60
CN(c1ncnc2[nH]ccc12)C1CC2(CC(NS(=O)(=O)c3ccc(Cl)cc3)C2)C1 (stereo not drawn) [Compound 13, 4-chloro-N-[2-[methyl(7H-pyrrolo[2,3-d]pyrimidin-4-yl)amino]spiro[3.3]heptan-6-yl]benzenesulfonamide]			95	27	77
CN(c1ncnc2[nH]ccc12)C1CC2(CC(NS(=O)(=O)c3ccc(C(F)(F)F)cc3)C2)C1 (stereo not drawn) [Compound 14, N-[2-[methyl(7H-pyrrolo[2,3-d]pyrimidin-4-yl)amino]spiro[3.3]heptan-6-yl]-4-(trifluoromethyl)benzenesulfonamide]			92	1	56
